{"source": "patent US10912774B2", "about": "“Pyrimidine FGFR4 inhibitors” (priority 2013, dated 2021)", "system": "HEP3B tumor xenografts", "type": "in vivo", "key": {"[1]": {"conditions": "Hep3B xenograft, 60 mg/kg orally twice daily"}}}
{"molecule": "CCN1CCN(c2ccc(Nc3cc(N(C)C(=O)Nc4c(Cl)c(OC)cc(OC)c4Cl)ncn3)cc2)CC1", "note": "[BGJ398]", "values": [{"measurement": "efficacy compared with compound 108", "setting": "[1]", "value": "efficacy comparable to compound 108"}, {"measurement": "tolerability (health of animals)", "setting": "[1]", "value": "had to be terminated on Day 11 due to poor health of animals"}]}
{"molecule": "C=CC(=O)Nc1cc(N2CCN(CC)CC2)ccc1Nc1cc(N(C)C(=O)Nc2c(Cl)c(OC)cc(OC)c2Cl)ncn1", "note": "[Compound 108, N-(2-(6-(3-(2,6-Dichloro-3,5-dimethoxyphenyl)-1-methylureido)pyrimidin-4-ylamino)-5-(4-ethylpiperazin-1-yl)-phenyl)acrylamide]", "values": [{"measurement": "efficacy compared with BGJ398", "setting": "Hep3B xenograft, 25, 37.5 or 50 mg/kg i.p. twice daily", "value": "more efficacious than BGJ398 at tolerable dosage levels"}]}
